Test results published in patent US20140205631A1, “Stimulation of vaccination by angiotensin peptides” (University of Southern California, priority 2013, published 2014).

Columns and labels:
[1] = system: FIV-p24 antigen; test: Vaginal secretion SIgA antibody titers (ELISA) after vaccination of cats; assay type: in vivo, feline immunodeficiency virus (FIV); settings: for SIgA Anti-FIV-p24: vaginal, lowest dilution Undilute
Description: (§1) Animals: Eleven (11) female outbred cats>24 weeks old that were free of FIV, feline leukemia virus (FeLV) and feline infectious peritonitis virus were employed. The animals were restrained for the application of test articles to mucous membranes and collection of blood and mucosal secretions. Sedation, if necessary, was induced by subcutaneous administration of ketamine hydrochloride (22 mg/kg) and acepromazine maleate (0.1 mg/kg). Euthanasia was accomplished with a lethal overdose of barbiturates. All activities were approved by the Institutional Animal Care and Use Committee and supervised by veterinary staff.
(§2) Vaccine Preparation: Fel-O-Vax FIV (Fort Dodge Animal Health, Fort Dodge, Iowa) and A(1-7) was combined in a constant volume of 2% hydroxyethyl cellulose (2% HEC). The range of concentrations of A(1-7) ranged from 0 to 10 mg/mL with a constant 0.33 mL of Fel-O-Vax FIV suspended in each mL of the gel applied for vaccination purposes. Two control animals received intramuscular Fel-O-Vax FIV at baseline, week 3 and week 5. One control animal had mucosal vaccination with Fel-O-Vax alone suspended in the 2% HEC without A(1-7) and one control animal received intramuscular Fel-O-Vax FIV with 0.3 mg/kg of A(1-7) at baseline, week 3 and week 5.
(§3) Delivery of angiotensin(1-7) and FIV vaccine to mucosal surfaces: 2% HEC, a viscous gel, was used as the vehicle for the topical delivery of angiotensin(1-7) and FIV vaccine. The topical vaccine was applied to the mucosal surface weekly for 6 consecutive weeks. 1.0 mL was applied to the muzzle for oral mucosal vaccination and 1.0 mL and 0.2 mL was instilled in the rectal and vaginal vaults, respectively for mucosal vaccination at these sites.
(§4) Measurement of Local Immune Response: The Weck-Cel Surgical Spear (Windsor Biomedical, Newton, N.H.) was used to obtain secretions. Once inserted, the sponge is allowed to remain in place for 5 minutes. The secretions were extracted by centrifugation with 300 μL of a buffer solution. The buffer solution is prepared by mixing 50 μL of 100× protease inhibitor cocktail and 250 μL of 10% Igepal (Sigma, St Louis, Mo., U.S.A.) with 4.7 ml of phosphate-buffered saline (PBS) containing 0.25% bovine serum albumin (BSA, Fraction V; Sigma). The 100× protease inhibitor cocktail contains 100 μg/mL aprotinin, 500 μg/mL leupeptin, 100 μg/mL bestatin (all Sigma), and 50 μg/mL 4-(2-Aminoethyl)-benzenesulfonyl fluoride hydrochloride (Roche Applied Sciences, U.S.A.) in phosphate buffered saline.
(§5) The local immune response in mucosal secretions was evaluated against the homologous FIV-p24 antigen (Cell Biolabs, Inc, San Diego, Calif.) or the heterologous HIV-gp120 antigen (ImmunoDiagnostics, Inc, Woburn, Mass.). Plates were prepared with 50 ng/mL FIV-p24 antigen or with 500 ng/mL HIV-gp120 antigen (Bachem Americans, Inc, Torrance, Calif.) incubated over night at 4° C., washed and the target sample added and incubated overnight again at 4° C. The plates were washed and the indicator goat anti-feline IgG (Accurate Chemical & Scientific Corp., Westbury, N.Y., working titer 1:10,000) or goat anti-feline IgA (Accurate Chemical & Scientific Corp., Westbury, N.Y., working titer 1:1,000) added and incubated for 24 hours at 4° C. Following a final wash, substrate solution was added. The stop solution was added after 15 minutes for the IgG reaction and after 30 minutes for the IgA reaction. Plates were read at 450 nm.

[2] = system: FIV-p24 antigen; test: Rectal secretion SIgA antibody titers (ELISA) after vaccination of cats; assay type: in vivo, feline immunodeficiency virus (FIV); settings: for SIgA Anti-FIV-p24: rectal, lowest dilution Undilute
Description: as §1, §2, §3, §4, §5

[3] = system: HIV-gp120 antigen; test: Vaginal secretion IgG antibody titers (ELISA) after vaccination of cats; assay type: in vivo, human immunodeficiency virus (HIV); settings: for IgG Anti-HIV gp120: vaginal, Week 8, lowest dilution 1:4, elution factor 300-fold
Description: as §1, §2, §3, §4, §5

[4] = system: HIV-gp120 antigen; test: Rectal secretion SIgA antibody titers (ELISA) after vaccination of cats; assay type: in vivo, human immunodeficiency virus (HIV); settings: parenteral vaccination or topical application of Fel-O-Vax FIV with A(1-7)
Description: as §1
Vaccine Preparation: Fel-O-Vax FIV (Fort Dodge Animal Health, Fort Dodge, Iowa) and A(1-7) was combined in a constant volume of 2% hydroxyethyl cellulose (2% HEC). The range of concentrations of A(1-7) ranged from 0 to 10 mg/mL with a constant 0.33 mL of Fel-O-Vax FIV suspended in each mL of the gel applied for vaccination purposes. Two control animals received intramuscular Fel-O-Vax FIV at baseline, week 3 and week 5. […]
(§6) The local immune response in mucosal secretions was evaluated against the homologous FIV-p24 antigen (Cell Biolabs, Inc, San Diego, Calif.) or the heterologous HIV-gp120 antigen (ImmunoDiagnostics, Inc, Woburn, Mass.). […] Plates were read at 450 nm.

[5] = system: FIV-p24; test: Oral secretion IgG antibody titers (ELISA) after vaccination of cats; assay type: in vivo, feline immunodeficiency virus (FIV); settings: Week 8, lowest dilution 1:4, elution factor 4-fold
Description: as §1, §2, §3, §4, §6

[6] = system: HIV-gp120 antigen; test: Oral secretion SIgA antibody titers (ELISA) after vaccination of cats; assay type: in vivo, human immunodeficiency virus (HIV); settings: for SIgA anti-HIV-gp120: oral, Week 8, lowest dilution 1:4, elution factor 4-fold
Description: as §1, §2, §3, §4, §5

[7] = IM Fel-O-Vax FIV + 0.3 mg/kg A(1-7), Week 4
[8] = IM Fel-O-Vax FIV + 0.3 mg/kg A(1-7), Week 6
[9] = topical Fel-O-Vax FIV + 0.1 A(1-7) in 2% HEC, Week 2
[10] = topical Fel-O-Vax FIV + 0.2 A(1-7) in 2% HEC, Week 2
[11] = topical Fel-O-Vax FIV + 0.2 A(1-7) in 2% HEC, Week 8
[12] = topical Fel-O-Vax FIV + 0.3 A(1-7) in 2% HEC, Week 6
[13] = topical Fel-O-Vax FIV + 0.3 A(1-7) in 2% HEC, Week 8
[14] = topical Fel-O-Vax FIV + 5.0 A(1-7) in 2% HEC, Week 4
[15] = topical Fel-O-Vax FIV + 5.0 A(1-7) in 2% HEC, Week 6
[16] = topical Fel-O-Vax FIV + 5.0 A(1-7) in 2% HEC, Week 8
[17] = topical Fel-O-Vax FIV + 7.5 A(1-7) in 2% HEC, Week 2
[18] = topical Fel-O-Vax FIV + 7.5 A(1-7) in 2% HEC, Week 4
[19] = topical Fel-O-Vax FIV + 7.5 A(1-7) in 2% HEC, Week 8
[20] = topical Fel-O-Vax FIV + 10.0 A(1-7) in 2% HEC, Week 2
[21] = topical Fel-O-Vax FIV + 10.0 A(1-7) in 2% HEC, Week 6
[22] = topical Fel-O-Vax FIV + 10.0 A(1-7) in 2% HEC, Week 8
[23] = topical Fel-O-Vax FIV + 0.1 A(1-7) in 2% HEC
[24] = topical Fel-O-Vax FIV + 7.5 A(1-7) in 2% HEC
[25] = topical Fel-O-Vax FIV + 10.0 A(1-7) in 2% HEC

Asp-Arg-Val-Tyr-Ile-His-Pro (DRVYIHP) [A(1-7)]
SIgA against FIV-p24 in vaginal secretions ([1]; Topical application of FIV antigen with A(1-7)): only low levels | SIgA Anti-FIV-p24 ([1]; IM Fel-O-Vax FIV + 0.3 mg/kg A(1-7), Week 2): Negative | SIgA Anti-FIV-p24 [1, 7]: Undilute | SIgA Anti-FIV-p24 [1, 8]: Undilute | SIgA Anti-FIV-p24 [1, 9]: Undilute | SIgA Anti-FIV-p24 ([1]; topical Fel-O-Vax FIV + 0.1 A(1-7) in 2% HEC, Week 4): Undilute | SIgA Anti-FIV-p24 [1, 10]: Undilute | SIgA Anti-FIV-p24 [1, 11]: Undilute | SIgA Anti-FIV-p24 [1, 12]: Undilute | SIgA Anti-FIV-p24 [1, 13]: Negative | SIgA Anti-FIV-p24 ([1]; topical Fel-O-Vax FIV + 5.0 A(1-7) in 2% HEC, Week 2): Negative | SIgA Anti-FIV-p24 [1, 14]: Negative | SIgA Anti-FIV-p24 [1, 15]: Negative | SIgA Anti-FIV-p24 [1, 16]: Negative | SIgA Anti-FIV-p24 [1, 17]: Negative | SIgA Anti-FIV-p24 [1, 18]: Negative | SIgA Anti-FIV-p24 ([1]; topical Fel-O-Vax FIV + 7.5 A(1-7) in 2% HEC, Week 6): Negative | SIgA Anti-FIV-p24 [1, 19]: Negative | SIgA Anti-FIV-p24 [1, 20]: Negative | SIgA Anti-FIV-p24 [1, 21]: Negative | SIgA Anti-FIV-p24 [1, 22]: Negative | SIgA-anti-FIV-p24 (rectal, Table 4) ([2]; both methods of vaccination (parenteral or topical Fel-O-Vax FIV with A(1-7))): Low levels | mucosal anti-FIV antibodies in the rectum ([2]; injection of A(1-7) with FIV antigens): increased | SIgA Anti-FIV-p24 [2, 7]: Undilute | SIgA Anti-FIV-p24 [2, 8]: Negative | SIgA Anti-FIV-p24 ([2]; IM Fel-O-Vax FIV + 0.3 mg/kg A(1-7), Week 8): Undilute | SIgA Anti-FIV-p24 [2, 9]: Undilute | SIgA Anti-FIV-p24 ([2]; topical Fel-O-Vax FIV + 0.1 A(1-7) in 2% HEC, Week 6): Undilute | SIgA Anti-FIV-p24 ([2]; topical Fel-O-Vax FIV + 0.1 A(1-7) in 2% HEC, Week 8): Undilute | SIgA Anti-FIV-p24 [2, 10]: Undilute | SIgA Anti-FIV-p24 ([2]; topical Fel-O-Vax FIV + 0.2 A(1-7) in 2% HEC, Week 6): Negative | SIgA Anti-FIV-p24 [2, 11]: Negative | SIgA Anti-FIV-p24 ([2]; topical Fel-O-Vax FIV + 0.3 A(1-7) in 2% HEC, Week 2): Undilute | SIgA Anti-FIV-p24 ([2]; topical Fel-O-Vax FIV + 0.3 A(1-7) in 2% HEC, Week 4): Undilute | SIgA Anti-FIV-p24 [2, 12]: Negative | SIgA Anti-FIV-p24 [2, 13]: Negative | SIgA Anti-FIV-p24 ([2]; topical Fel-O-Vax FIV + 0.4 A(1-7) in 2% HEC, Week 4): Undilute | SIgA Anti-FIV-p24 ([2]; topical Fel-O-Vax FIV + 0.4 A(1-7) in 2% HEC, Week 6): Undilute | SIgA Anti-FIV-p24 [2, 14]: Negative | SIgA Anti-FIV-p24 [2, 15]: Negative | SIgA Anti-FIV-p24 [2, 16]: Negative | SIgA Anti-FIV-p24 [2, 17]: Negative | SIgA Anti-FIV-p24 [2, 18]: Negative | SIgA Anti-FIV-p24 [2, 19]: Negative | SIgA Anti-FIV-p24 [2, 20]: Negative | SIgA Anti-FIV-p24 ([2]; topical Fel-O-Vax FIV + 10.0 A(1-7) in 2% HEC, Week 4): Negative | SIgA Anti-FIV-p24 [2, 21]: Negative | SIgA Anti-FIV-p24 [2, 22]: Negative | IgG antibody induction in vaginal secretions ([3]; topical, higher dose levels of A(1-7)): declined | IgG anti-HIV-gp120 antibodies in vaginal secretions ([3]; topical, lower dose levels of A(1-7)): also elicited | IgG Anti-HIV gp120 [3, 23]: Negative | IgG Anti-HIV gp120 ([3]; topical Fel-O-Vax FIV + 5.0 A(1-7) in 2% HEC): Negative | IgG Anti-HIV gp120 [3, 24]: Negative | IgG Anti-HIV gp120 [3, 25]: Negative | SIgA anti-HIV-gp120 (rectal, Table 4) [4]: High levels | IgG anti-FIV-p24 [5, 23]: Negative | IgG anti-FIV-p24 ([5]; topical Fel-O-Vax FIV + 0.2 A(1-7) in 2% HEC): Negative | IgG anti-FIV-p24 ([5]; topical Fel-O-Vax FIV + 0.3 A(1-7) in 2% HEC): Negative | IgG anti-FIV-p24 [5, 25]: Negative | SIgA-HIV-gp120 antibodies in oral secretions ([6]; A(1-7) combined with the intramuscular injections of Fel-O-Vax FIV): even higher titers | dose response of oral SIgA-anti-HIV-gp120 antibody titers ([6]; increasing A(1-7) concentrations in the topical vaccine): initial raise and then decline | SIgA anti-HIV-gp120 [6, 24]: Negative | SIgA anti-HIV-gp120 [6, 25]: Negative | SIgA-anti-HIV-gp120 antibody titers in oral secretions ([6]; topical application of the FIV antigen and A(1-7), compared with intramuscular): Comparable levels
